Measurements from patent US12313625B2, “Living tissue model device, vascular wall model, vascular wall model device and method of evaluating test substance” (FUJIFILM CORPORATION, priority 2017, dated 2025).

Legend:
[1] = tested on: VEC/SMC-HCM insert (HUVEC / HUASMC vascular wall model); details: histamine 10 μM or 100 μM, incubated 120 minutes, FIG. 10
Experimental: • (1) 2 mg of FITC-dextran 70 (70 kDa, Sigma) was dissolved in 8 ml of HBSS (+) (084-08965, Wako), to prepare a 250 μg/ml FITC-dextran 70 solution. The FITC-dextran 70 solution was stored in a light-shielded condition. […] The 96-well black plate was light-shielded by being covered with an aluminum sheet. • (9) The fluorescent intensity of the FITC in each sample liquid was measured using a plate reader (ENSPIRE, PerkinElmer) with an excitation wavelength (Ex) of 485 nm and an emission wavelength (Em) of 530 nm.

[2] = tested on: cell layered body of rat vascular endothelial cells and rat smooth muscle cells on HCM; test: Evaluation of response to physiologically active substance (thrombin) by microscopy of the cell layered body; assay type: cell-based; details: 37° C., 30 minutes
Experimental: • (1) 0.1 mg (100 units) of thrombin (#T7009-100UN, Sigma) was dissolved in 100 μl of physiological saline to prepare a thrombin solution at a concentration of 1000 U/mL. […] The micrograph of the cell layered body is shown in FIG. 12, which is a superposed image of red fluorescence from VE-cadherin and green fluorescence from α-smooth muscle actin.

| Compound | FITC-dextran 70 permeability [1] | cell contraction observed under a microscope ([2]; 25 U/mL or 100 U/mL thrombin, FIG. 12) | concentration dependence of cell contraction ([2]; 25 U/mL vs 100 U/mL thrombin) |
| --- | --- | --- | --- |
| NCCc1c[nH]cn1 [histamine, Histamine] | increase in FITC-dextran 70 permeability depending on the concentration of histamine |  |  |
| thrombin |  | cell contraction due to activation of actin stress fibers caused by the addition of thrombin was observed | Higher thrombin concentrations caused stronger cell contractions |
